Experiments:
Assay in all cases: scanMAX Kinase assay panel
Format in all cases: binding
[1] = molecular target: MST2 (Homo sapiens (Human), UniProt Q13188); conditions: read-out: % control
Method in brief: (§1)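 scanMAX kinase panel screen. Normalisation: (cpd − pos ctrl)/(neg ctrl − pos ctrl) × 100. Neg ctrl is DMSO (100%); pos ctrl gives 0%.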

[2] = molecular target: CDK2 (Homo sapiens (Human), UniProt P24941); conditions: read-out: % control
Method in brief: as §1

[3] = molecular target: PIK3CA(M1043I) (Homo sapiens (Human), UniProt P42336, M1043I); conditions: read-out: % control
Method in brief: as §1

[4] = molecular target: PIP5K2B (Homo sapiens (Human), UniProt P78356); conditions: read-out: % control
PIP5K2B, sequence (P78356 whole entry): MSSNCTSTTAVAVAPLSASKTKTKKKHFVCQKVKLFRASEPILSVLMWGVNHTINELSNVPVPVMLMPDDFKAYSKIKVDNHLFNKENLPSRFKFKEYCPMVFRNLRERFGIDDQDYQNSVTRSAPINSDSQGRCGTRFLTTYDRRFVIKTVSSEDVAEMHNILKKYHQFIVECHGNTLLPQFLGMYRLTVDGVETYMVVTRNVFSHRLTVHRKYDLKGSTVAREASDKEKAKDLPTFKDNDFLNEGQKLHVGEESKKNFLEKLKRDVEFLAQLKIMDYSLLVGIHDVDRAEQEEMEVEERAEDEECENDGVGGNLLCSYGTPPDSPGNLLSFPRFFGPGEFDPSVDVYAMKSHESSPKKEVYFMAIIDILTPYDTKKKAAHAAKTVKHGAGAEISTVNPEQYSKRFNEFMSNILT
Method in brief: as §1

[5] = molecular target: ERBB2 (Homo sapiens (Human), UniProt P04626); conditions: read-out: % control
Method in brief: as §1

[6] = molecular target: CSNK2A1 (Homo sapiens (Human), UniProt P68400); conditions: read-out: % control
Method in brief: as §1

[7] = molecular target: NEK7 (Homo sapiens (Human), UniProt Q8TDX7); conditions: read-out: % control
Method in brief: as §1

[8] = molecular target: PKMYT1 (Homo sapiens (Human), UniProt Q99640); conditions: read-out: % control
Method in brief: as §1

[9] = molecular target: EGFR(S752-I759del) (Homo sapiens (Human), UniProt P00533, DEL752-759); conditions: read-out: % control
Method in brief: as §1

[10] = molecular target: ERBB3 (Homo sapiens (Human), UniProt P21860); conditions: read-out: % control
Method in brief: as §1

[11] = molecular target: NEK11 (Homo sapiens (Human), UniProt Q8NG66); conditions: read-out: % control
NEK11, sequence (Q8NG66 whole entry): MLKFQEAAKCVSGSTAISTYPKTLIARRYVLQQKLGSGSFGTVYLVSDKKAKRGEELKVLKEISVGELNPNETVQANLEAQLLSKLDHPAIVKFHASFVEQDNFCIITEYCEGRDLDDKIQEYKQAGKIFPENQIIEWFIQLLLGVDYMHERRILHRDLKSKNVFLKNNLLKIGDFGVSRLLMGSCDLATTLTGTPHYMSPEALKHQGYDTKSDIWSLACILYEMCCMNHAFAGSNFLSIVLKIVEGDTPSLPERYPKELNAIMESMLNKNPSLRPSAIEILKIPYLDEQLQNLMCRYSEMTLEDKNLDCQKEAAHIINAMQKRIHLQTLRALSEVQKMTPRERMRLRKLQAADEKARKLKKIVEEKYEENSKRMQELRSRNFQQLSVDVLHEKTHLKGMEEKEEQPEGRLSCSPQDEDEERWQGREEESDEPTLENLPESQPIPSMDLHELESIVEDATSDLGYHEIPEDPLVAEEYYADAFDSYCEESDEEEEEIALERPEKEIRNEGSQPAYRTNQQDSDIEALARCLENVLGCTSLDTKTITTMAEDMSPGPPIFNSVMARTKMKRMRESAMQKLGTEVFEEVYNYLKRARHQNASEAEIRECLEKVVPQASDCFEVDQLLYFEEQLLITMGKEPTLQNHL
Method in brief: as §1

[12] = molecular target: PAK4 (Homo sapiens (Human), UniProt O96013); conditions: read-out: % control
Method in brief: as §1

[13] = molecular target: ABL1(Y253F)-phosphorylated (Homo sapiens (Human), UniProt P00519, Y253F); conditions: read-out: % control
Method in brief: as §1

[14] = molecular target: CIT (Homo sapiens (Human), UniProt O14578); conditions: read-out: % control
Method in brief: as §1

[15] = molecular target: ANKK1 (Homo sapiens (Human), UniProt Q8NFD2); conditions: read-out: % control
Method in brief: as §1

[16] = molecular target: ERK5 (Homo sapiens (Human), UniProt Q13164); conditions: read-out: % control
ERK5, sequence (Q13164 whole entry): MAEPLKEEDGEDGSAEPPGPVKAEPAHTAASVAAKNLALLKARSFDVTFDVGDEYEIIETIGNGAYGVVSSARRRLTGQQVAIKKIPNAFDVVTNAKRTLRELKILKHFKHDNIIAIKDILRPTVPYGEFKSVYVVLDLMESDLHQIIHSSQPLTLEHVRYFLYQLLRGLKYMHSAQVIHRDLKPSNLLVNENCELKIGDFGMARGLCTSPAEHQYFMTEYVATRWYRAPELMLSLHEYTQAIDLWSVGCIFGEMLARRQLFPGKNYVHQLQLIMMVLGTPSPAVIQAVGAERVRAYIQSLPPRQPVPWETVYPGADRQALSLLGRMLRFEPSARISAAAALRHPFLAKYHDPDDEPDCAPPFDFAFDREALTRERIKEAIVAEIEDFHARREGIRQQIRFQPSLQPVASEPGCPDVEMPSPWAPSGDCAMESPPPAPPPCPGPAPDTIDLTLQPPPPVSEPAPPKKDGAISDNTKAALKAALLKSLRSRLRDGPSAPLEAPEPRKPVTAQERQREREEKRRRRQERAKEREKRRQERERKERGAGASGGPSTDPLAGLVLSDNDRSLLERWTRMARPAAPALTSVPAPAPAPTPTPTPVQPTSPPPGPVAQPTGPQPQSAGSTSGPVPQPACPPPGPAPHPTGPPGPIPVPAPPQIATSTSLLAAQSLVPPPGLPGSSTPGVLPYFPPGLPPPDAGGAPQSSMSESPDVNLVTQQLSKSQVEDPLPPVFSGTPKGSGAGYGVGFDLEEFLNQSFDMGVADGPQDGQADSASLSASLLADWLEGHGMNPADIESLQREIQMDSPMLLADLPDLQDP
Method in brief: as §1

[17] = molecular target: NEK6 (Homo sapiens (Human), UniProt Q9HC98); conditions: read-out: % control
NEK6, sequence (Q9HC98 whole entry): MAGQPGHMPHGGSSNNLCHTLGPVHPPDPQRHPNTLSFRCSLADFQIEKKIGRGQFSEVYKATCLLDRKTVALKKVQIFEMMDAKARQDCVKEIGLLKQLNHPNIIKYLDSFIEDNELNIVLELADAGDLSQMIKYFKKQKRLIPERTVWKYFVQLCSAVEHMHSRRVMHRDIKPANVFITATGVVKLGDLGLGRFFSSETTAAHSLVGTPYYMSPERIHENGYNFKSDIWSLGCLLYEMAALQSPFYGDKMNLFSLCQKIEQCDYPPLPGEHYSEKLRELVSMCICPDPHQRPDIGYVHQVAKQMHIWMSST
Method in brief: as §1

[18] = molecular target: INSR (Homo sapiens (Human), UniProt P06213); conditions: read-out: % control
Method in brief: as §1

[19] = molecular target: CAMK1B (Homo sapiens (Human), UniProt Q6P2M8); conditions: read-out: % control
Method in brief: as §1

[20] = molecular target: RIPK1 (Homo sapiens (Human), UniProt Q13546); conditions: read-out: % control
Method in brief: as §1

[21] = molecular target: FLT1 (Homo sapiens (Human), UniProt P17948); conditions: read-out: % control
Method in brief: as §1

[22] = molecular target: RET(V804L) (Homo sapiens (Human), UniProt P07949, V804L); conditions: read-out: % control
Method in brief: as §1

[23] = molecular target: p38-beta (Homo sapiens (Human), UniProt Q15759); conditions: read-out: % control
Method in brief: as §1

[24] = molecular target: ERK2 (Homo sapiens (Human), UniProt P28482); conditions: read-out: % control
Method in brief: as §1

[25] = molecular target: BUB1 (Homo sapiens (Human), UniProt O43683); conditions: read-out: % control
Method in brief: as §1

[26] = molecular target: MAPKAPK5 (Homo sapiens (Human), UniProt Q8IW41); conditions: read-out: % control
Method in brief: as §1

[27] = test system: FLT3(ITD, F691L); conditions: 1 uM
Method in brief: as §1

[28] = molecular target: ABL1(T315I)-nonphosphorylated (Homo sapiens (Human), UniProt P00519, T315I); conditions: read-out: % control
Method in brief: as §1

[29] = molecular target: MARK1 (Homo sapiens (Human), UniProt Q9P0L2); conditions: read-out: % control
Method in brief: as §1

[30] = molecular target: SGK (Homo sapiens (Human), UniProt O00141); conditions: read-out: % control
SGK, sequence (O00141 whole entry): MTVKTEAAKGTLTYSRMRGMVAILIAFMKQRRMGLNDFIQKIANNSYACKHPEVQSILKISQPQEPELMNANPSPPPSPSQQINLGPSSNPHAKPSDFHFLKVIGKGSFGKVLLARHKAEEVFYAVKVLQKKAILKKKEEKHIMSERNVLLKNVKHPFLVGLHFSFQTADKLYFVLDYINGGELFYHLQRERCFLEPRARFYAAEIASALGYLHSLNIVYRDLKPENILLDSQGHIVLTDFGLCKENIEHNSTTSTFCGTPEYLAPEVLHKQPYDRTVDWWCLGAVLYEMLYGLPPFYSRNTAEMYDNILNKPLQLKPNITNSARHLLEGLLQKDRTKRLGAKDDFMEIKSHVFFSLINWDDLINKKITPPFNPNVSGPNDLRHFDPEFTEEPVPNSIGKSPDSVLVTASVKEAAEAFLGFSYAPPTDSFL
Method in brief: as §1

[31] = molecular target: CSNK1G1 (Homo sapiens (Human), UniProt Q9HCP0); conditions: read-out: % control
Method in brief: as §1

[32] = molecular target: JAK2(JH1domain-catalytic) (Homo sapiens (Human), UniProt O60674); conditions: read-out: % control
JAK2(JH1domain-catalytic), sequence (O60674 849-1124): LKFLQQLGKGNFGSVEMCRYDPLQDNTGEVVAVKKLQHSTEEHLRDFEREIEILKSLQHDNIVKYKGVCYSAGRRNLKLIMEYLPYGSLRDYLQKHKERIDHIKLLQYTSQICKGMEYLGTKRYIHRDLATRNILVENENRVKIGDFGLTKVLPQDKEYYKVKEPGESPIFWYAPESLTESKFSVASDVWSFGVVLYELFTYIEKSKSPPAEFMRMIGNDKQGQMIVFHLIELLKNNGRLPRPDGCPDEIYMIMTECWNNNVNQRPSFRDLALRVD
Method in brief: as §1

[33] = molecular target: ALK (Homo sapiens (Human), UniProt Q9UM73); conditions: read-out: % control
ALK, sequence (Q9UM73 19-1620): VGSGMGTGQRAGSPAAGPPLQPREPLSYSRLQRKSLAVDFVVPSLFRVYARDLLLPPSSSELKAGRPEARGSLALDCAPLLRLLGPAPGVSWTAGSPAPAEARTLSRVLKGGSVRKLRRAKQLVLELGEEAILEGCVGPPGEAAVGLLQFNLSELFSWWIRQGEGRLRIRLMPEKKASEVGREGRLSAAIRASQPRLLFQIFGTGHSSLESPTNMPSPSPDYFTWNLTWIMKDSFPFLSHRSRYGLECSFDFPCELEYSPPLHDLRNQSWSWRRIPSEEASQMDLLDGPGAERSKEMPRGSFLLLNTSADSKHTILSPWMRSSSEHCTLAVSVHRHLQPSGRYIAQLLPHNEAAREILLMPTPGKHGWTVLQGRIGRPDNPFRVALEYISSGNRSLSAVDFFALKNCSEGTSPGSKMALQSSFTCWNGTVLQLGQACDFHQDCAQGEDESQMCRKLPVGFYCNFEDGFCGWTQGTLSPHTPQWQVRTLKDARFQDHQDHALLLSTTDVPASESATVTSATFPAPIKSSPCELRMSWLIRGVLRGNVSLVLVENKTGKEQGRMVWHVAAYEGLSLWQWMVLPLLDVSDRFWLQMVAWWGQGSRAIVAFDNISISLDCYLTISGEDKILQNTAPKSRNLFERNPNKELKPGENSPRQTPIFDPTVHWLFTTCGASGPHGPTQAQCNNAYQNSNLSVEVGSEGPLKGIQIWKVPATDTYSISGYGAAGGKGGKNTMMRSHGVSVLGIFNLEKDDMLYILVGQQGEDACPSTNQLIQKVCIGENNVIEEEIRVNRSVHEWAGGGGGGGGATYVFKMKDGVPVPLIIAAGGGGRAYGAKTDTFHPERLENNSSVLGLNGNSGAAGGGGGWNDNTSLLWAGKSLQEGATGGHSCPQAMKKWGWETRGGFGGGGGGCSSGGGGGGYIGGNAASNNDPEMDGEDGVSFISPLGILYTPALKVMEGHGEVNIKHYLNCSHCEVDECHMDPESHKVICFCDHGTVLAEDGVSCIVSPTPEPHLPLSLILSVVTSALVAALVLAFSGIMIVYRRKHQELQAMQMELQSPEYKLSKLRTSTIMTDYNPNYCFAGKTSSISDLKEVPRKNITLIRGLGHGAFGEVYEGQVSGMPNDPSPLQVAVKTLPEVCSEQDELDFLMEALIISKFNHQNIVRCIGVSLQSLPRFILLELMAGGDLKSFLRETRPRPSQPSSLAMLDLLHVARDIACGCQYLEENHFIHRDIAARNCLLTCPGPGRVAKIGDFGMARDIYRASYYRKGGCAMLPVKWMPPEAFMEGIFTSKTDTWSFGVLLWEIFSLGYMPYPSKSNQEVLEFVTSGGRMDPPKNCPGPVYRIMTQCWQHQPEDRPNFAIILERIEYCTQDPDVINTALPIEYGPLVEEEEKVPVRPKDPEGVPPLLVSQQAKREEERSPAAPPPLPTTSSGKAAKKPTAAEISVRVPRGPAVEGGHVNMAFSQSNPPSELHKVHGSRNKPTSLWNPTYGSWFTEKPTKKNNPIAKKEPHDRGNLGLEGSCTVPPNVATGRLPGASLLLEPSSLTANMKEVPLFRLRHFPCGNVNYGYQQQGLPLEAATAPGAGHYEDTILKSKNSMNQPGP
Method in brief: as §1

[34] = molecular target: MEK6 (Homo sapiens (Human), UniProt P52564); conditions: read-out: % control
Method in brief: as §1

[35] = molecular target: YES (Homo sapiens (Human), UniProt P07947); conditions: read-out: % control
YES, sequence (P07947 whole entry): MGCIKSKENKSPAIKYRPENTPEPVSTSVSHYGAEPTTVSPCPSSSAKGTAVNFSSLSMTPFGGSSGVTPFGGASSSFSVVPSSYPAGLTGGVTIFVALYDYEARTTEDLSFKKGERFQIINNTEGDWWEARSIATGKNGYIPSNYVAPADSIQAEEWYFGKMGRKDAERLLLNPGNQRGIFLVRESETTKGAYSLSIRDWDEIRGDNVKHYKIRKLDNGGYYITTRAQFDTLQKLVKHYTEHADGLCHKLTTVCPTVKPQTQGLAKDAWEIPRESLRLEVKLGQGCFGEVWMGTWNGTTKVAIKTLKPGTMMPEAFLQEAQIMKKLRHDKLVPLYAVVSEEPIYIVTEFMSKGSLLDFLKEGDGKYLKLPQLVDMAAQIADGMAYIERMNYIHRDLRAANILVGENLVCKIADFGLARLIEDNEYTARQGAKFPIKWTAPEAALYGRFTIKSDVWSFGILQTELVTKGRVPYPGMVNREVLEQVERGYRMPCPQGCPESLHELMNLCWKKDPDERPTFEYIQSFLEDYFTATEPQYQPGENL
Method in brief: as §1

[36] = molecular target: GRK7 (Homo sapiens (Human), UniProt Q8WTQ7); conditions: read-out: % control
Method in brief: as §1

[37] = molecular target: SIK2 (Homo sapiens (Human), UniProt Q9H0K1); conditions: read-out: % control
Method in brief: as §1

[38] = molecular target: TLK2 (Homo sapiens (Human), UniProt Q86UE8); conditions: read-out: % control
Method in brief: as §1

[39] = molecular target: RIPK5 (Homo sapiens (Human), UniProt Q6XUX3); conditions: read-out: % control
Method in brief: as §1

Row | Structure (SMILES) | remaining binding at 1 µM [1] | remaining binding at 1 µM [2] | remaining binding at 1 µM [3] | remaining binding at 1 µM [4] | remaining binding at 1 µM [5] | remaining binding at 1 µM [6] | remaining binding at 1 µM [7] | remaining binding at 1 µM [8] | remaining binding at 1 µM [9] | remaining binding at 1 µM [10] | remaining binding at 1 µM [11] | remaining binding at 1 µM [12] | remaining binding at 1 µM [13] | remaining binding at 1 µM [14] | remaining binding at 1 µM [15] | remaining binding at 1 µM [16] | remaining binding at 1 µM [17] | remaining binding at 1 µM [18] | remaining binding at 1 µM [19] | remaining binding at 1 µM [20] | also measured
1 | CCNc1cc(Nc2ccc(C(=O)N3CCC(N4CCOCC4)CC3)cc2OC)nc2[nH]cc(C#N)c12 [Example 18, 4-(ethylamino)-6-((2-methoxy-4-(4-morpholinopiperidine-1-carbonyl)phenyl)amino)-1H-pyrrolo[2,3-b]pyridine-3-carbonitrile] | 95% | 100% | 100% | 87% | 99% | 83% | 89% | 90% | 99% | 97% | 100% | 88% | 89% | 71% | 78% | 20% | 97% | 36% | 34% | 94% | remaining binding at 1 µM [21]: 46%; remaining binding at 1 µM [22]: 97%; remaining binding at 1 µM [23]: 77%; remaining binding at 1 µM [24]: 94%; remaining binding at 1 µM [25]: 76%; remaining binding at 1 µM [26]: 43%; % control [27]: 46%; remaining binding at 1 µM [28]: 96%; remaining binding at 1 µM [29]: 84%; remaining binding at 1 µM [30]: 64%; remaining binding at 1 µM [31]: 43%; remaining binding at 1 µM [32]: 70%; remaining binding at 1 µM [33]: 2.7%; remaining binding at 1 µM [34]: 53%; remaining binding at 1 µM [35]: 90%; remaining binding at 1 µM [36]: 96%; remaining binding at 1 µM [37]: 87%; remaining binding at 1 µM [38]: 98%; remaining binding at 1 µM [39]: 18%
2 | CCNc1cc(Nc2ccc(C(=O)N3CCC(N4CCOCC4)CC3)cc2OC)nc2[nH]cc(C(F)(F)F)c12 [Example 57, (4-((4-(ethylamino)-3-(trifluoromethyl)-1H-pyrrolo[2,3-b]pyridin-6-yl)amino)-3-methoxyphenyl) (4-morpholinopiperidin-1-yl)methanone] | 100% | 100% | 99% | 100% | 73% | 100% | 85% | 96% | 75% | 100% | 100% | 93% | 100% | 66% | 100% | 50% | 84% | 48% | 81% | 92% | remaining binding at 1 µM [21]: 94%; remaining binding at 1 µM [22]: 91%; remaining binding at 1 µM [23]: 76%; remaining binding at 1 µM [24]: 74%; remaining binding at 1 µM [25]: 99%; remaining binding at 1 µM [26]: 100%; % control [27]: 84%; remaining binding at 1 µM [28]: 100%; remaining binding at 1 µM [29]: 82%; remaining binding at 1 µM [30]: 100%; remaining binding at 1 µM [31]: 88%; remaining binding at 1 µM [32]: 100%; remaining binding at 1 µM [33]: 2.5%; remaining binding at 1 µM [34]: 72%; remaining binding at 1 µM [35]: 83%; remaining binding at 1 µM [36]: 84%; remaining binding at 1 µM [37]: 95%; remaining binding at 1 µM [38]: 88%; remaining binding at 1 µM [39]: 79%

Reference: patent US11117892B2, “Pyrrolo-pyridine derivative compound, method for preparing same, and pharmaceutical composition containing same as active ingredient for prevention or treatment of protein kinase-related diseases” (DAEGU-GYEONGBUK MEDICAL INNOVATION FOUNDATION, priority 2017, dated 2021)
